Consider 26 molecules from patent publication US4760136A, “Chartreusin derivatives and salts thereof” (Ishihara Sangyo Kaisha, Ltd., priority 1984, dated 1988).

In one series the test system is P-388 leukemia cells. Kind of series: Antitumor activity: P-388 leukemia cells inoculated intraperitoneally, drug administered intravenously, BDF1 mice. The format is in vivo. As to conditions: Mus musculus, P388, iv, BDF1 mice, P-388 i.p., read-out: T/C (%) of MST; for response vs control in vivo at 40 mg/kg: dose c: 40 mg/kg × 3, i.v. on days 1, 5 and 9; for response vs control in vivo at 80 mg/kg: dose f: 80 mg/kg × 3, i.v. on days 1, 5 and 9; for response vs control in vivo at 20 mg/kg: dose b: 20 mg/kg × 3, i.v. on days 1, 5 and 9; for response vs control in vivo at 10 mg/kg: dose a: 10 mg/kg × 3, i.v. on days 1, 5 and 9; for response vs control in vivo at 60 mg/kg: dose e: 60 mg/kg × 3, i.v. on days 1, 5 and 9. As for the experimental part: Into BDF1 mice were inoculated intraperitoneally P-388 leukemia cells at a rate of 1×10^6 cells/mouse, and each drug to be tested was administered intravenously on the first, fifth and ninth days after the inoculation. […] The drugs were as follows solutions prepared by adding physiological saline to each of compound Nos. 8, 9, 10, 11, 17, 34, 42, 59, 80 and 134; suspensions prepared by dispersing each of compound Nos. 41, 78, 98, 100, 130, 191, 212, 213, 215, 227 and 230 to 232 and a small amount of sodium carboxymethyl cellulose (Na.CMC) in physiological saline, […]

Series [1] is described as follows: Acute toxicity, intravenous (once), ddY mice. The format is in vivo. As to conditions: mouse, in vivo, iv, formulated per Preparation Example. The text has this: In Table 7 are shown acute toxicity values (LD50, mg/kg) in ddY mice in the case of intravenously administering (once) each of the compounds of this invention in the form of preparations shown in the Preparation Examples shown in Table 7.

Regarding `COC1C(O)C(C)OC(OC2C(Oc3cccc4c(OC(=O)CCNC=O)c5c(=O)oc6ccc(C)c7c(=O)oc(c34)c5c67)OC(C)C3OC(c4ccccc4C)OC32)C1O` (stereo not shown) [Compound No. 55], the response vs control in vivo at 40 mg/kg in the series on P-388 leukemia cells was 162%. In series [1], the LD50 is not below 40 mg/kg.

On to `CCC1OC2C(C)OC(Oc3cccc4c(OC(=O)CCNC(=O)C(F)(F)F)c5c(=O)oc6ccc(C)c7c(=O)oc(c34)c5c67)C(OC3OC(C)C(O)C(OC)C3O)C2O1` (stereo not shown) [compound 100], for which the response vs control in vivo at 80 mg/kg with P-388 leukemia cells was 157%. Further, in series [1], the LD50 is not below 180 mg/kg.

Take `COc1cccc(C(=O)Oc2c3cccc(O[C@@H]4O[C@H](C)[C@@H]5OC(C)(C)O[C@@H]5[C@H]4O[C@H]4O[C@H](C)[C@H](O)[C@H](OC)[C@H]4O)c3c3oc(=O)c4c(C)ccc5oc(=O)c2c3c54)c1` [Compound No. 184]: in the series on P-388 leukemia cells, the response vs control in vivo at 40 mg/kg amounted to 162% and the response vs control in vivo at 80 mg/kg was found to be 199%. The molecule further registered an LD50 in series [1] not below 80 mg/kg.

As to `COC1C(O)C(C)OC(OC2C(Oc3cccc4c(OC(=O)C(Cc5ccccc5)NC(=O)OCc5ccccc5)c5c(=O)oc6ccc(C)c7c(=O)oc(c34)c5c67)OC(C)C3OC(c4ccc(Cl)cc4)OC32)C1O` (stereo not shown) [compound 127], in the series on P-388 leukemia cells, the response vs control in vivo at 20 mg/kg came out at 130%. The LD50 in series [1] was not below 40 mg/kg.

Regarding `CO[C@H]1[C@@H](O)[C@@H](C)O[C@H](O[C@H]2[C@H](Oc3cccc4c(OC(=O)[C@@H](NC(=O)CNC(=O)CN)C(C)C)c5c(=O)oc6ccc(C)c7c(=O)oc(c34)c5c67)O[C@H](C)[C@@H]3OC(c4ccccc4)O[C@@H]32)[C@@H]1O` (stereo partly shown) [compound 36, 6-O-(glycyl-glycyl-valyl)-3',4'-O-benzylidene-chartreusin phosphate], in the series on P-388 leukemia cells, the response vs control in vivo at 10 mg/kg amounted to 135% and the response vs control in vivo at 20 mg/kg worked out at 157%. The same molecule returned an LD50 in series [1] not below 40 mg/kg.

Regarding `CO[C@H]1[C@@H](O)[C@@H](C)O[C@H](O[C@H]2[C@H](Oc3cccc4c(OC(=O)c5ccc(Cl)cc5)c5c(=O)oc6ccc(C)c7c(=O)oc(c34)c5c67)O[C@H](C)[C@@H]3OC(C)(C)O[C@@H]32)[C@@H]1O` [Compound No. 185], in the series with P-388 leukemia cells, the response vs control in vivo at 40 mg/kg amounted to 142% and the response vs control in vivo at 80 mg/kg turned out to be 192%. In series [1], this molecule registered an LD50 not below 80 mg/kg.

For `COC1C(O)C(C)OC(OC2C(Oc3cccc4c(OC(=O)C(C)CN)c5c(=O)oc6ccc(C)c7c(=O)oc(c34)c5c67)OC(C)C3OC(c4ccccc4)OC32)C1O` (stereo not drawn) [Compound No. 6, 6-O-(β-Amino-Isobutyryl)-3',4'-O-Benzylidene-Chartreusin Phosphate], in the series on P-388 leukemia cells, the response vs control in vivo at 20 mg/kg turned out to be 182% and the response vs control in vivo at 40 mg/kg amounted to 242%. This molecule came in with an LD50 in series [1] not below 40 mg/kg.

Take `COC1C(O)C(C)OC(OC2C(Oc3cccc4c(OC(=O)C(NC(=O)OCc5ccccc5)C(C)C)c5c(=O)oc6ccc(C)c7c(=O)oc(c34)c5c67)OC(C)C3OC(c4ccccc4Cl)OC32)C1O` (stereo not shown) [compound 105]: the response vs control in vivo at 80 mg/kg in the series on P-388 leukemia cells worked out at 216%. In series [1], this molecule showed an LD50 not below 80 mg/kg.

Turning to `COC1C(O)C(C)OC(OC2C(Oc3cccc4c(OC(=O)CCNC=O)c5c(=O)oc6ccc(C)c7c(=O)oc(c34)c5c67)OC(C)C3OC(c4cccc(Cl)c4)OC32)C1O` (stereo not shown) [compound 90], the response vs control in vivo at 20 mg/kg in the series on P-388 leukemia cells is 162%. Moreover, in series [1], the LD50 is not below 30 mg/kg.

Regarding `COC1C(O)C(C)OC(OC2C(Oc3cccc4c(OC(=O)C(C)CNC(=O)OCc5ccccc5)c5c(=O)oc6ccc(C)c7c(=O)oc(c34)c5c67)OC(C)C3OC(c4cccc(F)c4)OC32)C1O` (stereo not shown) [Compound No. 60], in the series with P-388 leukemia cells, the response vs control in vivo at 20 mg/kg was 176% and the response vs control in vivo at 40 mg/kg is 210%. In series [1], the LD50 was not below 40 mg/kg.

Consider `CCC1(C)O[C@H]2[C@@H](O1)[C@@H](C)O[C@@H](Oc1cccc3c(OC(=O)CC(C)NC(=O)C(F)(F)F)c4c(=O)oc5ccc(C)c6c(=O)oc(c13)c4c56)[C@@H]2O[C@H]1O[C@H](C)[C@H](O)[C@H](OC)[C@H]1O` (stereo partly shown) [compound 131], for which the response vs control in vivo at 80 mg/kg in the series on P-388 leukemia cells was 148%. Moreover, the LD50 in series [1] is not below 100 mg/kg.

As to `COC1C(O)C(C)OC(OC2C(Oc3cccc4c(OC(=O)CCCCNC(=O)C(F)(F)F)c5c(=O)oc6ccc(C)c7c(=O)oc(c34)c5c67)OC(C)C3OC(c4ccccc4)OC32)C1O` (stereo not shown) [Compound No. 43], the response vs control in vivo at 20 mg/kg in the series with P-388 leukemia cells was determined as 226%. In series [1], this molecule displayed an LD50 not below 40 mg/kg.

For `CCCCCCCCCC(=O)Oc1c2cccc(OC3OC(C)C4OC(C)(C)OC4C3OC3OC(C)C(O)C(OC)C3O)c2c2oc(=O)c3c(C)ccc4oc(=O)c1c2c43` (stereo not shown) [compound 220], in the series on P-388 leukemia cells (dose d: 50 mg/kg × 3, i.v. on days 1, 5 and 9), the response vs control in vivo at 50 mg/kg was 157%. In addition, the median lethal dose (LD50) in series [1] is not below 60 mg/kg.

With `COC1C(O)C(C)OC(OC2C(Oc3cccc4c(OC(=O)CNC(=O)CNC(=O)CN)c5c(=O)oc6ccc(C)c7c(=O)oc(c34)c5c67)OC(C)C3OC(c4ccccc4)OC32)C1O` (stereo not shown) [Compound No. 11], the response vs control in vivo at 20 mg/kg in the series with P-388 leukemia cells came to 186%. In series [1], this molecule displayed an LD50 not below 40 mg/kg.

Consider `C/C=C(\C)C(=O)Oc1c2cccc(OC3OC(C)C4OC(C)(C)OC4C3OC3OC(C)C(O)C(OC)C3O)c2c2oc(=O)c3c(C)ccc4oc(=O)c1c2c43` (stereo not shown) [Compound No. 173], for which, in the series on P-388 leukemia cells, the response vs control in vivo at 40 mg/kg amounted to 152% and the response vs control in vivo at 80 mg/kg was found to be 192%. This molecule had an LD50 in series [1] not below 80 mg/kg.

Consider `C/C=C/C(=O)Oc1c2cccc(O[C@@H]3O[C@H](C)[C@@H]4OC(C)(C)O[C@@H]4[C@H]3O[C@H]3O[C@H](C)[C@H](O)[C@H](OC)[C@H]3O)c2c2oc(=O)c3c(C)ccc4oc(=O)c1c2c43` [compound 200], for which the response vs control in vivo at 40 mg/kg in the series on P-388 leukemia cells amounted to 168%. Moreover, the LD50 in series [1] was not below 80 mg/kg.

With `COC1C(O)C(C)OC(OC2C(Oc3cccc4c(OC(=O)CCNC(C)=O)c5c(=O)oc6ccc(C)c7c(=O)oc(c34)c5c67)OC(C)C3OC(C)(C)OC32)C1O` (stereo not drawn) [Compound No. 87, 6-O-(N-Acetyl-β-Alanyl)-3',4'-O-Isopropylidene-Chartreusin], in the series with P-388 leukemia cells, the response vs control in vivo at 40 mg/kg was 134% and the response vs control in vivo at 80 mg/kg was 183%. The LD50 in series [1] was not below 100 mg/kg.

Take `COC1C(O)C(C)OC(OC2C(Oc3cccc4c(OC(=O)CCNC(=O)OCc5ccccc5)c5c(=O)oc6ccc(C)c7c(=O)oc(c34)c5c67)OC(C)C3OC(c4ccccc4)OC32)C1O` (stereo not shown) [compound 72]: the response vs control in vivo at 20 mg/kg in the series on P-388 leukemia cells was 167%. The LD50 in series [1] was not below 40 mg/kg.

With `COC1C(O)C(C)OC(OC2C(Oc3cccc4c(OC(=O)CCC5CCCCC5)c5c(=O)oc6ccc(C)c7c(=O)oc(c34)c5c67)OC(C)C3OC(C)(C)OC32)C1O` (stereo not shown) [Compound No. 240, 6-O-(3-Cryclohexyl-Propionyl)-3',4'-O-Isopropylidene-Chartreusin], the response vs control in vivo at 60 mg/kg with P-388 leukemia cells was found to be 158%. The same molecule registered a median lethal dose (LD50) in series [1] not below 60 mg/kg.

Take `CO[C@H]1[C@@H](O)[C@@H](C)O[C@H](O[C@H]2[C@H](Oc3cccc4c(OC(=O)c5cccc(N(C)C)c5)c5c(=O)oc6ccc(C)c7c(=O)oc(c34)c5c67)O[C@H](C)[C@@H]3OC(C)(C)O[C@@H]32)[C@@H]1O` [compound 209]: in the series on P-388 leukemia cells, the response vs control in vivo at 40 mg/kg is 134% and the response vs control in vivo at 80 mg/kg worked out at 192%. For the same molecule, the LD50 in series [1] was not below 80 mg/kg.

As to `COC1C(O)C(C)OC(OC2C(Oc3cccc4c(OC(=O)CCNC(=O)C(Cl)(Cl)Cl)c5c(=O)oc6ccc(C)c7c(=O)oc(c34)c5c67)OC(C)C3OC(c4ccccc4)OC32)C1O` (stereo not shown) [Compound No. 22], the response vs control in vivo at 20 mg/kg in the series on P-388 leukemia cells came to 181%. Besides, the LD50 in series [1] was not below 40 mg/kg.

For the molecule `COC1C(O)C(C)OC(OC2C(Oc3cccc4c(OC(=O)CC(C)NC(=O)C(F)(F)F)c5c(=O)oc6ccc(C)c7c(=O)oc(c34)c5c67)OC(C)C3OC(c4ccccc4Cl)OC32)C1O` (stereo not shown) [compound 94], the response vs control in vivo at 80 mg/kg with P-388 leukemia cells is 183%. In series [1], this molecule gave an LD50 not below 80 mg/kg.

With `COC1C(O)C(C)OC(OC2C(Oc3cccc4c(OC(=O)CCS(C)(=O)=O)c5c(=O)oc6ccc(C)c7c(=O)oc(c34)c5c67)OC(C)C3OC(c4ccccc4)OC32)C1O` (stereo not shown) [Compound No. 168], the response vs control in vivo at 20 mg/kg in the series with P-388 leukemia cells came to 167%. Further, in series [1], the LD50 was not below 40 mg/kg.

As for `COC1C(O)C(C)OC(OC2C(Oc3cccc4c(OC(=O)CC[N+](=O)[O-])c5c(=O)oc6ccc(C)c7c(=O)oc(c34)c5c67)OC(C)C3OC(c4ccccc4)OC32)C1O` (stereo not shown) [Compound No. 166], the response vs control in vivo at 10 mg/kg in the series on P-388 leukemia cells came out at 138%. In series [1], the LD50 is not below 30 mg/kg.

As for `COC1C(O)C(C)OC(OC2C(Oc3cccc4c(OC(=O)COC(C)=O)c5c(=O)oc6ccc(C)c7c(=O)oc(c34)c5c67)OC(C)C3OC(c4ccccc4)OC32)C1O` (stereo not shown) [Compound No. 148], in the series on P-388 leukemia cells, the response vs control in vivo at 20 mg/kg worked out at 185% and the response vs control in vivo at 40 mg/kg worked out at 250%. In addition, the LD50 in series [1] was not below 40 mg/kg.

Regarding `COC1C(O)C(C)OC(OC2C(Oc3cccc4c(OC(=O)CC(C)CC(C)(C)C)c5c(=O)oc6ccc(C)c7c(=O)oc(c34)c5c67)OC(C)C3OC(C)(C)OC32)C1O` (stereo not shown) [compound 237], in the series on P-388 leukemia cells, the response vs control in vivo at 60 mg/kg came out at 242%. The molecule further returned a 50% lethal dose (LD50) in series [1] not below 60 mg/kg.

A word on the LD50: it is the dose at which mortality reaches 50%.
